How the values were obtained:
SMARCA4 = SMARCA4 (Homo sapiens, UniProt P51532); assay: HiBiT assay for protein degradation, Hela SMARCA4-HiBiT cells (A series); assay type: cell-based; set-up: fuse HiBiT to the carboxy terminus of SMARCA2 (Promega CS302365) or SMARCA4 (Promega CS3023225); host or cells: HeLa (CRISPR/Cas9 HiBiT knock-in); details: Hela SMARCA4-HiBiT cells, 24 hours treatment; for DC50: read-out: SMARC A4 Hela HiBit DC50; for Dmax: read-out: SMARC A4 Hela HiBit Dmax
Method in brief: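 SMARCA4 degradation was measured in HeLa cells in which HiBiT had been knocked into the SMARCA4 carboxy terminus via CRISPR/Cas9 (Promega CS3023225). Cells were maintained in DMEM with FBS and penicillin-streptomycin. At the end of treatment, SMARCA4 levels were read by lytic HiBiT luminescence (Nano-Glo®, Promega N3050), and data were analyzed with GraphPad Prism.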

SMARCA2 = SMARCA2 (Homo sapiens, UniProt P51531); assay: HiBiT assay for protein degradation, Hela SMARCA2-HiBiT cells (A series); assay type: cell-based; set-up: Hela cells were genetically modified via CRISPR/Cas9 to fuse HiBiT to the carboxy terminus of SMARCA2; host or cells: HeLa (CRISPR/Cas9 HiBiT knock-in); details: Hela SMARCA2-HiBiT cells, 24 hours treatment; for DC50: read-out: SMARC A2 Hela HiBit DC50; for Dmax: read-out: SMARC A2 Hela HiBit Dmax (%);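 for SMARC A2 Hela HiBit Dmax (%): 24 h compound treatment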
SMARCA2, sequence (P51531 whole entry): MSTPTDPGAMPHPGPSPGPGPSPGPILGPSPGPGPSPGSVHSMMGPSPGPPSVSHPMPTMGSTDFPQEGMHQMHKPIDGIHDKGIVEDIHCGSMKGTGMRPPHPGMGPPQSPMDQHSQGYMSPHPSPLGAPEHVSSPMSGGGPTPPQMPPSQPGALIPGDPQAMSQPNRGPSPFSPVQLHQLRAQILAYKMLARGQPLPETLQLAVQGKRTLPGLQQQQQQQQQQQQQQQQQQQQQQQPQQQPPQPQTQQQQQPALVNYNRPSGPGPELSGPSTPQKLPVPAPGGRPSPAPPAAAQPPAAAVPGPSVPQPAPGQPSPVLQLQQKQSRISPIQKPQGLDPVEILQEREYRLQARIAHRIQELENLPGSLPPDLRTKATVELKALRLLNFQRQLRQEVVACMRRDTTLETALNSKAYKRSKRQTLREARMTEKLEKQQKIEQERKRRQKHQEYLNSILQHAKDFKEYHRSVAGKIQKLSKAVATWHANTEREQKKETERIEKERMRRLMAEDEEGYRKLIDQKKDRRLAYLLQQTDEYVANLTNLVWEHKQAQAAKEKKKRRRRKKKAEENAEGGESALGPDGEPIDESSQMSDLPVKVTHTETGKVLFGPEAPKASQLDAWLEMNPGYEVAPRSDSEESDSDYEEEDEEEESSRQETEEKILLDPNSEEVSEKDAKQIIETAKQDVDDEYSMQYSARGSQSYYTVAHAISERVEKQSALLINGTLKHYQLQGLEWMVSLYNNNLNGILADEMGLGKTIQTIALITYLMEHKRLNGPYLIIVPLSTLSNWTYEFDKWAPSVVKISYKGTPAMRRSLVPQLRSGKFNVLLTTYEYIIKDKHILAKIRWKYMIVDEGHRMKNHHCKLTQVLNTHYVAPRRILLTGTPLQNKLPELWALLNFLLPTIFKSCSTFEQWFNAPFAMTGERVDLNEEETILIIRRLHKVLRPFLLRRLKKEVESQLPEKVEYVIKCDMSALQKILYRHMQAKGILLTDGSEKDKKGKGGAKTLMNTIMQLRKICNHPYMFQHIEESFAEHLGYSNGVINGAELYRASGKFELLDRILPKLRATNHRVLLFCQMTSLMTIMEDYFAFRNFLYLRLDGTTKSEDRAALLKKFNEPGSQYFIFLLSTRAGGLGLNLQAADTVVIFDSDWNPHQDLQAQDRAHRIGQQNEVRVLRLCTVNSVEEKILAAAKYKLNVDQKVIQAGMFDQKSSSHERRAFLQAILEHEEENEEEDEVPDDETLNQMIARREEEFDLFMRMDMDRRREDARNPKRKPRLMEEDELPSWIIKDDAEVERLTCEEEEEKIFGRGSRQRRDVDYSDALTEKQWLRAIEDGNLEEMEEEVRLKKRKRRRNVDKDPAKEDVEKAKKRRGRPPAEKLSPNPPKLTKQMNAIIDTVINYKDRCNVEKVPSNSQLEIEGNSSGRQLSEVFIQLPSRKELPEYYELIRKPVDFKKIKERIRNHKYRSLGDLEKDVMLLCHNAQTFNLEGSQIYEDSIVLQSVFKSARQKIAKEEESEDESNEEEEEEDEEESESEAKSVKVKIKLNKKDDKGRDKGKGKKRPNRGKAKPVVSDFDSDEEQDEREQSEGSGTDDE
Method in brief: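 SMARCA2 degradation was measured in HeLa cells whose endogenous SMARCA2 carries a carboxy-terminal HiBiT tag introduced by CRISPR/Cas9 (Promega CS302365). Cells were maintained in DMEM with FBS and penicillin-streptomycin. SMARCA2 levels were read at the end of the experiment by Nano-Glo® HiBiT lytic luminescence (Promega N3050) and analyzed in GraphPad Prism.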

SMARCA4, sequence (P51532 whole entry): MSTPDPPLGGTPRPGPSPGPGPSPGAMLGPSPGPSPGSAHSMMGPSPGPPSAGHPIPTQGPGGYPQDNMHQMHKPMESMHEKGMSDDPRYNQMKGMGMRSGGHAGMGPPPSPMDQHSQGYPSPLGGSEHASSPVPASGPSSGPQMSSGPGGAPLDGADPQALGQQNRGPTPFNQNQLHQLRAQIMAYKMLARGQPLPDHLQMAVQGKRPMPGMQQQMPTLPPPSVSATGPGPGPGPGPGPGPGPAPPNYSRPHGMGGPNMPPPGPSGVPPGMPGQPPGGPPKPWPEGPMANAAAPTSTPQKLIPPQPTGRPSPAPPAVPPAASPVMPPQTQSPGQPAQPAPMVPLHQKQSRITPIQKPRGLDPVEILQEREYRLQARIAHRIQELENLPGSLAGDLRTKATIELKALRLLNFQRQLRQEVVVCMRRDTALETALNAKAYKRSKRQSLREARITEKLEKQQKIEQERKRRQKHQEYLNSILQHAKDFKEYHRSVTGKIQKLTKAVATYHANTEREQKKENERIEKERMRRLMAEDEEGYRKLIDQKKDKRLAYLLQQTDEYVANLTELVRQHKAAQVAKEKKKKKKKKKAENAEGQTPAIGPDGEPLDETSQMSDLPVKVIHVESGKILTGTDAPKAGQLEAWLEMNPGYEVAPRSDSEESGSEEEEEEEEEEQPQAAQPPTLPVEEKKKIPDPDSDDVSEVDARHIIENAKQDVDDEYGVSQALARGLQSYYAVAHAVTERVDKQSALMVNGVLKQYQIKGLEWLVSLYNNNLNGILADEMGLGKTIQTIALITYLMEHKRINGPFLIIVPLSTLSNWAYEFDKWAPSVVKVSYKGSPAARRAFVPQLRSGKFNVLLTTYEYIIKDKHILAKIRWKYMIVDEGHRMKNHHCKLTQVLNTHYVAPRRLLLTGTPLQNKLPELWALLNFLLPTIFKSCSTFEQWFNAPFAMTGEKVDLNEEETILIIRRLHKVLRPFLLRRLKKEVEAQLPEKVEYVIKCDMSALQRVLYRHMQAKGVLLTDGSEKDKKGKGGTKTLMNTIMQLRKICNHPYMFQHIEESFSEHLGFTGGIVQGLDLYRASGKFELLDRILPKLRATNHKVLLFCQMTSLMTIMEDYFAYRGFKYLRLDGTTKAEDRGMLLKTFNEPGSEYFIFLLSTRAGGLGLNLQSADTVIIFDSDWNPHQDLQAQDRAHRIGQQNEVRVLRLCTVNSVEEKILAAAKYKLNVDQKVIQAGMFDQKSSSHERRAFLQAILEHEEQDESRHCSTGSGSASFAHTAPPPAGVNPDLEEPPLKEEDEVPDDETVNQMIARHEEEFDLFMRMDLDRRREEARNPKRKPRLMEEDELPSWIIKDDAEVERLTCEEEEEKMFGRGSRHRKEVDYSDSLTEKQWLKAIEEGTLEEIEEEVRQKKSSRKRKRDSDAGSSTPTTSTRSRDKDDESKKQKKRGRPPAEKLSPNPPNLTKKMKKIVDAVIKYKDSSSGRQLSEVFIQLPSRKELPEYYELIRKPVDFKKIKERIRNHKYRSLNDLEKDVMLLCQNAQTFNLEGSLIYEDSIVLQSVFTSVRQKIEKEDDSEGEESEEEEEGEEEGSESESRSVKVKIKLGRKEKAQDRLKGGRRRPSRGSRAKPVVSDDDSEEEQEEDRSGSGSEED

Row | SMILES | DC50 (SMARCA4) | Dmax (SMARCA4) | DC50 (SMARCA2) | Dmax (SMARCA2) | SMARC A4 Hela HiBit DC50(nM) (SMARCA4)
1 | Cc1ncsc1-c1ccc([C@H](C)NC(=O)[C@@H]2C[C@@H](O)CN2C(=O)[C@H](C2CCN(C3CCOCC3)CC2)n2cc([C@H]3CC[C@H](CN4CCC(c5ccc6c(c5)-n5c(nc(=O)c7c(Cl)cccc75)C65CCCCC5)CC4)CC3)nn2)cc1 [Compound A112, (2S,4R)-1-((S)-2-(4-((1r,4S)-4-((4-(4′-chloro-5′-oxo-5′H-spiro[cyclohexane-1,7′-indolo[1,2-a]quinazolin]-10′-yl)piperidin-1-yl)methyl)cyclohexyl)-1H-1,2,3-triazol-1-yl)-2-(1-(tetrahydro-2H-pyran-4-yl)piperidin-4-yl)acetyl)-4-hydroxy-N—((S)-1-(4-(4-methylthiazol-5-yl)phenyl)ethyl)pyrrolidine-2-carboxamide] | 100 to 1000 nM | 50 to 69% | < 10 nM | > 90% | –
2 | Cc1ncsc1-c1ccc([C@H](C)NC(=O)[C@@H]2C[C@@H](O)CN2C(=O)[C@H](C2CCN(C(=O)[C@@H]3COCCO3)CC2)n2cc([C@H]3CC[C@H](CN4CCC(c5ccc6c(c5)-n5c(nc(=O)c7c(Cl)cccc75)C65CCCCC5)CC4)CC3)nn2)cc1 [Compound A113, (2S,4R)-1-((S)-2-(1-((S)-1,4-dioxane-2-carbonyl)piperidin-4-yl)-2-(4-((1r,4S)-4-((4-(4′-chloro-5′-oxo-5′H-spiro[cyclohexane-1,7′-indolo[1,2-a]quinazolin]-10′-yl)piperidin-1-yl)methyl)cyclohexyl)-1H-1,2,3-triazol-1-yl)acetyl)-4-hydroxy-N—((S)-1-(4-(4-methylthiazol-5-yl)phenyl)ethyl)pyrrolidine-2-carboxamide] | – | 70 to 90% | < 10 nM | > 90% | No fit
3 | Cc1ncsc1-c1ccc([C@H](Cn2cc(CN3CCC(c4ccc5c(c4)-n4c(nc(=O)c6c(Br)cccc64)C54CCCCC4)CC3)nn2)NC(=O)[C@@H]2C[C@@H](O)CN2C(=O)[C@@H](n2cc(C3CC3)nn2)C(C)(C)C)cc1 [Compound A114, (2S,4R)—N—((R)-2-(4-((4-(4′-bromo-5′-oxo-5′H-spiro[cyclohexane-1,7′-indolo[1,2-a]quinazolin]-10′-yl)piperidin-1-yl)methyl)-1H-1,2,3-triazol-1-yl)-1-(4-(4-methylthiazol-5-yl)phenyl)ethyl)-1-((S)-2-(4-cyclopropyl-1H-1,2,3-triazol-1-yl)-3,3-dimethylbutanoyl)-4-hydroxypyrrolidine-2-carboxamide] | 100 to 1000 nM | 70 to 90% | 10 to 100 nM | 70 to 90% | –

Now from value to molecule:

Row | DC50 (SMARCA4) | Dmax (SMARCA4) | DC50 (SMARCA2) | Dmax (SMARCA2) | SMARC A4 Hela HiBit DC50(nM) (SMARCA4) | SMILES
4 | > 1000 nM | 50 to 69% | 10 to 100 nM | > 90% | – | Cc1ncsc1-c1ccc([C@H](C)NC(=O)[C@@H]2C[C@@H](O)CN2C(=O)[C@H](C2CCN(C)CC2)n2cc([C@H]3CC[C@H](CN4CCC(c5ccc6c(c5)-n5c(nc(=O)c7c(Cl)cccc75)C65CCCCC5)CC4)CC3)nn2)cc1 [Compound A110, (2S,4R)-1-((S)-2-(4-((1r,4S)-4-((4-(4′-chloro-5′-oxo-5′H-spiro[cyclohexane-1,7′-indolo[1,2-a]quinazolin]-10′-yl)piperidin-1-yl)methyl)cyclohexyl)-1H-1,2,3-triazol-1-yl)-2-(1-methylpiperidin-4-yl)acetyl)-4-hydroxy-N—((S)-1-(4-(4-methylthiazol-5-yl)phenyl)ethyl)pyrrolidine-2-carboxamide]
5 | 10 to 100 nM | 70 to 90% | < 10 nM | > 90% | – | CC(=O)N1CCC([C@@H](C(=O)N2C[C@H](O)C[C@H]2C(=O)N[C@@H](C)c2ccc(-c3scnc3C)cc2)n2cc([C@H]3CC[C@H](CN4CCC(c5ccc6c(c5)-n5c(nc(=O)c7c(Cl)cccc75)C65CCCCC5)CC4)CC3)nn2)CC1 [Compound A111, (2S,4R)-1-((S)-2-(1-acetylpiperidin-4-yl)-2-(4-((1r,4S)-4-((4-(4′-chloro-5′-oxo-5′H-spiro[cyclohexane-1,7′-indolo[1,2-a]quinazolin]-10′-yl)piperidin-1-yl)methyl)cyclohexyl)-1H-1,2,3-triazol-1-yl)acetyl)-4-hydroxy-N—((S)-1-(4-(4-methylthiazol-5-yl)phenyl)ethyl)pyrrolidine-2-carboxamide]

— patent publication US20260092071A1, “COMPOUNDS AND COMPOSITIONS AS SMARCA2/4 DEGRADERS AND USES THEREOF” (REGENTS OF THE UNIVERSITY OF MICHIGAN, priority 2022, published 2026)
